Assay results published in US9605006B2, “5-aryl-1-imino-1-oxo-[1,2,4]thiadiazines” (Hoffmann-La Roche Inc., priority 2013, dated 2017).
pIC50: −log10 of the molar value.

target: BACE1 (Homo sapiens (Human), UniProt P56817); assay: Cellular Aβ-lowering assay (Abeta 40 AlphaLISA Assay); assay type: cell-based; conditions: HEK293 APP cells, Aβ40 in culture supernatant after 18-20 hrs incubation
Method: Cellular Aβ-Lowering Assay:
The Abeta 40 AlphaLISA Assay can be used. The HEK293 APP cells were seeded in 96 well Microtiter plates in cell culture medium (Iscove's, plus 10% (v/v) fetal bovine serum, penicillin/streptomycin) to about 80% confluency and the compounds were added at a 3× concentration in ⅓ volume of culture medium (final DMSO concentration was kept at 1% v/v). After 18-20 hrs incubation at 37° C. and 5% CO2 in a humidified incubator, the culture supernatants were harvested for the determination of Aβ40 concentrations using Perkin-Elmer Human Amyloid beta 1-40 (high specificity) Kit (Cat# AL275C).
In a Perkin-Elmer White Optiplate-384 (Cat#6007290), 2 ul culture supernatants were combined with 2μl of a 10× AlphaLISA Anti-hAβAcceptor beads+Biotinylated Antibody Anti-Aβ1-40 Mix (50 μg/mL/5 nM). After 1 hour room temperature incubation, 16 μl of a 1.25× preparation of Streptavidin (SA) Donor beads (25 μg/mL) were added and incubated for 30 minutes in the Dark. Light Emission at 615 nm was then recorded using EnVision-Alpha Reader. Levels of Aβ40 in the culture supernatants were calculated as percentage of maximum signal (cells treated with 1% DMSO without inhibitor). The IC50 values were calculated using the Excel XLfit software.

BACE1, sequence (P56817 46-501): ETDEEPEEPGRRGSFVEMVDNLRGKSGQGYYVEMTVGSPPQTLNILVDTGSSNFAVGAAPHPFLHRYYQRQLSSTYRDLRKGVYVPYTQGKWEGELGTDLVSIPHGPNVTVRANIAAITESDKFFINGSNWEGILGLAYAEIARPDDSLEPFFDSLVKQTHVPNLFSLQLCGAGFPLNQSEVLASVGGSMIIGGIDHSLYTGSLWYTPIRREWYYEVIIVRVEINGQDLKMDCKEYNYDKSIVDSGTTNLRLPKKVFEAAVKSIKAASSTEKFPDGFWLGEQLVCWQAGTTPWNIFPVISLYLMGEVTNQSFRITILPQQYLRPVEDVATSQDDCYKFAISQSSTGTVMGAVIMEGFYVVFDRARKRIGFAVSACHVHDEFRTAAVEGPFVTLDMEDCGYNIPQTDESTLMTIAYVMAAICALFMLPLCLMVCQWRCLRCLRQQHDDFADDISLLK

pIC50	SMILES
7.35	CC1(c2cc(NC(=O)c3ccc(C#N)cn3)ccc2F)CS2(=O)=NCCCCN2C(N)=N1 (stereo in doubt) [Example 1, 5-cyano-pyridine-2-carboxylic acid [3-((3RS,4aRS)-1-amino-3-methyl-4a-oxo-3,4,6,7,8,9-hexahydro-4aλ^6-thia-2,5,9a-triaza-benzocyclohepten-3-yl)-4-fluoro-phenyl]-amide]
8.05	COc1cnc(-c2cc(-c3ccc(F)c([C@]4(C)C[S@@]5(=O)=NCCCCN5C(N)=N4)c3)on2)cn1 [Example 17, (9R,11R)-7-Amino-9-(2-fluoro-5-(3-(5-methoxypyrazin-2-yl)isoxazol-5-yl)phenyl)-9-methyl-2,3,4,5,9,10-hexahydro-[1,2,4]thiadiazino[1,2-a][1,2,7]thiadiazepine 11-oxide 2,2,2-trifluoroacetate]
8.70	CC1(c2cc(NC(=O)c3ccc(C#N)cn3)ccc2F)CS2(=O)=NCCCCN2C(N)=N1 (stereo in doubt) [Example 2, 5-cyano-pyridine-2-carboxylic acid [3-((3RS,4aSR)-1-amino-3-methyl-4a-oxo-3,4,6,7,8,9-hexahydro-4aλ^6-thia-2,5,9a-triaza-benzocyclohepten-3-yl)-4-fluoro-phenyl]-amide]
7.85	C[C@@]1(c2cc(-c3cc(-c4cnc(OCC(F)F)cn4)no3)ccc2F)C[S@@]2(=O)=NCCCCN2C(N)=N1 [Example 19, (9R,11R)-7-Amino-9-(5-(3-(5-(2,2-difluoroethoxy)pyrazin-2-yl)isoxazol-5-yl)-2-fluorophenyl)-9-methyl-2,3,4,5,9,10-hexahydro-[1,2,4]thiadiazino[1,2-a][1,2,7]thiadiazepine 11-oxide 2,2,2-trifluoroacetate]
6.16	COc1cnc(-c2cc(-c3ccc(F)c([C@]4(C)C[S@]5(=O)=NCCCCN5C(N)=N4)c3)on2)cn1 [Example 18, (9R,11S)-7-amino-9-(2-fluoro-5-(3-(5-methoxypyrazin-2-yl)isoxazol-5-yl)phenyl)-9-methyl-2,3,4,5,9,10-hexahydro-[1,2,4]thiadiazino[1,2-a][1,2,7]thiadiazepine 11-oxide 2,2,2-trifluoroacetate]
8.00	C[C@@]1(c2cc(NC(=O)c3ccc(OCC(F)(F)F)cn3)ccc2F)CS2(=O)=NCCCCN2C(N)=N1 (stereo in doubt) [Example 21, 5-(2,2,2-Trifluoro-ethoxy)-pyridine-2-carboxylic acid [3-((3R,4aS)-1-amino-3-methyl-4a-oxo-3,4,6,7,8,9-hexahydro-4aλ^6-thia-2,5,9a-triaza-benzocyclohepten-3-yl)-4-fluoro-phenyl]-amide]
9.00	C[C@@]1(c2cc(NC(=O)c3ncc(C#N)cc3Cl)ccc2F)CS2(=O)=NCCCCN2C(N)=N1 (stereo in doubt) [Example 20, 3-Chloro-5-cyano-pyridine-2-carboxylic acid [3-((3R,4aS)-1-amino-3-methyl-4a-oxo-3,4,6,7,8,9-hexahydro-4aλ^6-thia-2,5,9a-triaza-benzocyclohepten-3-yl)-4-fluoro-phenyl]-amide]
8.82	Cc1cc(F)cnc1C(=O)Nc1ccc(F)c([C@]2(C)CS3(=O)=NCCCCN3C(N)=N2)c1 (stereo in doubt) [Example 23, 5-Fluoro-3-methyl-pyridine-2-carboxylic acid [3-((3R,4aS)-1-amino-3-methyl-4a-oxo-3,4,6,7,8,9-hexahydro-4aλ^6-thia-2,5,9a-triaza-benzocyclohepten-3-yl)-4-fluoro-phenyl]-amide]
9.70	CC#CCOc1cnc(C(=O)Nc2ccc(F)c([C@]3(C)CS4(=O)=NCCCCN4C(N)=N3)c2)cn1 (stereo in doubt) [Example 22, 5-But-2-ynyloxy-pyrazine-2-carboxylic acid [3-((3R,4aS)-1-amino-3-methyl-4a-oxo-3,4,6,7,8,9-hexahydro-4aλ^6-thia-2,5,9a-triaza-benzocyclohepten-3-yl)-4-fluoro-phenyl]-amide]

The remaining lines, values behind:

SMILES	pIC50
CC1(c2ccccc2F)CS2(=O)=NCCCCN2C(N)=N1 (stereo in doubt) [Example A20a2, (3RS,4aSR)-3-(2-Fluoro-phenyl)-3-methyl-4a-oxo-3,4,6,7,8,9-hexahydro-4aλ^6-thia-2,5,9a-triaza-benzocyclohepten-1-ylamine]	5.98
Cc1cc(C#N)cnc1C(=O)Nc1ccc(F)c([C@]2(C)CS3(=O)=NCC(F)(F)CN3C(N)=N2)c1 (stereo partly drawn) [Example 25, N-(3-((8R)-6-amino-3,3-difluoro-8-methyl-10-oxido-3,4,8,9-tetrahydro-2H-[1,2,6]thiadiazino[1,2-a][1,2,4]thiadiazin-8-yl)-4-fluorophenyl)-5-cyano-3-methylpicolinamide]	8.70
C[C@@]1(c2cc(C#Cc3ccc(C#N)cc3)ccc2F)C[S@@]2(=O)=NCCCCN2C(N)=N1 [Example 16, 4-((3-((9R,11R)-7-amino-9-methyl-11-oxido-2,3,4,5,9,10-hexahydro-[1,2,4]thiadiazino[1,2-a][1,2,7]thiadiazepin-9-yl)-4-fluorophenyl)ethynyl)benzonitrile 2,2,2-trifluoroacetate]	7.68
C[C@@]1(c2cc(-c3cc(-c4ncc(Cl)cn4)no3)ccc2F)C[S@]2(=O)=NCCCCN2C(N)=N1 [Example 14, (9R,11S)-7-Amino-9-(5-(3-(5-chloropyrimidin-2-yl)isoxazol-5-yl)-2-fluorophenyl)-9-methyl-2,3,4,5,9,10-hexahydro-[1,2,4]thiadiazino[1,2-a][1,2,7]thiadiazepine 11-oxide 2,2,2-trifluoroacetate]	7.02
C[C@@]1(c2cc(-c3cn(-c4ccc(C#N)cn4)nn3)ccc2F)C[S@]2(=O)=NCCCCN2C(N)=N1 [Example 15, 6-(4-(3-((9R,11S)-7-Amino-9-methyl-11-oxido-2,3,4,5,9,10-hexahydro-[1,2,4]thiadiazino[1,2-a][1,2,7]thiadiazepin-9-yl)-4-fluorophenyl)-1H-1,2,3-triazol-1-yl)nicotinonitrile 2,2,2-trifluoroacetate]	7.02
C[C@@]1(c2cc(-c3cc(-c4ncc(Cl)cn4)no3)ccc2F)C[S@@]2(=O)=NCCCCN2C(N)=N1 [Example 13, (9R,11R)-7-Amino-9-(5-(3-(5-chloropyrimidin-2-yl)isoxazol-5-yl)-2-fluorophenyl)-9-methyl-2,3,4,5,9,10-hexahydro-[1,2,4]thiadiazino[1,2-a][1,2,7]thiadiazepine 11-oxide 2,2,2-trifluoroacetate]	7.92
